From patent publication US20230414626A1, “INDUCTION OF FERROPTOSIS FOR CANCER THERAPY” (Memorial Sloan Kettering Cancer Center, priority 2020, published 2023) come the findings set out here.

One experiment concerns BT474 cells. Kind of experiment: Cell death quantification (Sytox Green), RSL3-induced ferroptosis. Conditions: RSL3 0.5-1 μM, GDC-0941 2 μM, MK-2206 2 μM, Torin 1 μM, CCI-779 0.5 μM, Fatostatin A 5 μM, CAY10566 5 μM. Type of experiment: cell-based, human. The procedure:
(§1) FIG. 1 A-D. Oncogenic activation of the PI3K-AKT-mTOR signaling pathway confers resistance to ferroptosis. (A) Genetic background of the analyzed cancer cell lines and their sensitivity to RSL3. (B) Cells were seeded in 96-well plate, 2×10^4 cells per well and incubated overnight. Cell death was induced by 24-h treatment of RSL3 with indicated concentrations. Cell death were measured by Sytox Green staining, as detailed in Methods. (C) Indicated protein components in the PI3K-AKT pathway were detected by western blot in indicated cell types. (D) Cells were treated with or without PI3K inhibitor GDC-0941 (2 μM), AKT inhibitor MK-2206 (2 μM), RSL3 (1 μM), or ferroptosis inhibitor Ferrostatin-1 (Fer-1, 1 μM) as indicated for 12 h (BT474) or 24 h (MDA-MB-453). Cell death was measured. Indicators for P values (same in all other figures): ****, P≤0.0001; *** P≤0.001; **, P≤0.01; *, P≤0.05; ns, P>0.05
(§2) FIG. 2 A-E. mTORC1, instead of mTORC2, suppresses ferroptosis. (A) MDA-MB-453 and BT474 were treated with CCI-779 (0.5 μM), RSL3 (1 μM for MDA-MB-453 cells and 0.5 μM for BT474 cells), and Fer-1 (1 μM) as indicated. (B) Cells were seeded in 6-well plate, 4×10^5 cells per well and incubated overnight. MDA-MB-453 and BT474 cells were treated as indicated. CCI-779, 0.5 μM; RSL3, 1 μM for MDA-MB-453 cells and 0.5 μM for BT474 cells; Fer-1, 1 μM. Cells were stained with 5 μM C1I-BODIPY followed by flow cytometry after 8 h-treatment. (C) 3D spheroids were treated as indicated. CCI-779, 0.5 μM; RSL3, 0.5 μM; Fer-1, 1 μM. Top panel, dead cells were stained by SYTOX Green (scale bar, 100 μm). Bottom panel, cell viability was assayed by measuring cellular ATP levels. (D) Cells expressing shRNAs targeting RPTOR or RICTOR were treated as indicated. CCI-779, 0.5 μM; RSL3, 0.5 μM; Fer-1, 1 μM. (E) Lipid peroxidation of samples as in panel D were measured.
(§3) FIG. 5 A-H. SREBP1 protects cells from ferroptosis through SCD1 activity. (A) The expression of SREBP1, and its targets SCD1, FASN, and ACACA, in control and SREBF1-sgRNA cells were detected by western blot. (B) The mRNA level of SREPF1 and its targets gene SCD were measured by RT-PCR. (C) Cells were pretreated with or without 5 μM CAY10566 overnight, and then subjected to the indicated treatments. RSL3, 0.5 μM for BT474 cells and 1 μM for MDA-MB-453 cells; CAY10566, 5 μM; Fer-1, 1 μM. (D) Cells expressing control or SCD-sgRNA were treated as indicated. RSL3, 1 μM for MDA-MB-453 cells and 0.5 μM for BT474 cells; Fer-1, 1 μM. (E) 3D spheroids derived from BT474 cells harboring control or SCD-sgRNA were treated as indicated. RSL3, 0.5 μM; CCI-779, 0.5 μM; Fer-1, 1 μM. Left, cell death staining (scale bar, 100 m). Right, cell viability. (F) SCD1 was overexpressed in BT474 cells and determined by western blot. Cells were treated as indicated. RSL3, 0.5 μM; CCI-779, 0.5 μM. (G) 3D spheroids derived from BT474 cells with control or SCD1 overexpression were treated as indicated. RSL3, 0.5 μM; CCI-779, 0.5 μM; Fer-1, 1 μM. Left, cell death staining (scale bar, 100 m). Right, cell viability. (H) Cells were treated as indicated. RSL3, 0.5 μM for BT474 and 1 μM for MDA-MB-453; CCI-779, 0.5 μM; Oleic acid (OA), 0.5 mM; stearic acid (SA), 0.5 mM.
(§4) FIG. 7 A-J. PI3K-AKT-mTOR signaling regulates ferroptosis sensitivity. (A) Cells were treated as indicated. GDC-0941, 2 μM; MK-2206, 2 μM; RSL3, 1 μM; Fer-1, 1 μM. Lipid peroxidation was measured. (B) Cells were treated with indicated conditions. Torin, 1 μM; RSL3, 1 μM for MDA-MB-453 cells and 0.5 μM for BT474 cells; Fer-1, 1 μM. Cell death was measured. (C) Cells were treated with indicated conditions. RSL3, 10 μM for MCF cells and PC-3 cells, 5 μM for T47D cells, 1 μM for HepG2 cells; Torin, 1 μM; CCI-779, 0.5 μM. (D) Cells were treated as indicated. CCI-779, 0.5 μM; Torin, 1 μM; Fer-1, 1 μM. Cell death was staining by propidium iodide (PI) (red) or Sytox Green (green) (scale bar, 100 μm). (E-F) 3D spheroids for MDA-MB-453 cells and MCF7 cells were treated as indicated. […]

Another experiment concerns MDA-MB-453 cells. The experiment is described as above. The conditions noted are these: RSL3 1 μM, GDC-0941 2 μM, MK-2206 2 μM, Torin 1 μM, CCI-779 0.5 μM, Fatostatin A 5 μM, CAY10566 5 μM. Format: cell-based, human. The procedure: as §1, §2, §3, §4

For `Cc1nnc(-c2ccc(N3CCC(Oc4cc(F)ccc4Cl)CC3)nn2)o1` [CAY10566], the “sensitization to ferroptosis (cell death) induced by RSL3” value (“sensitization to ferroptosis” below) in the experiment on BT474 cells and in the experiment with MDA-MB-453 cells was “sensitized the effect of RSL3” throughout.
Turning to `CO[C@H]1C[C@@H]2CC[C@@H](C)[C@@](O)(O2)C(=O)C(=O)N2CCCC[C@H]2C(=O)O[C@H]([C@H](C)C[C@@H]2CC[C@@H](OC(=O)C(C)(CO)CO)[C@H](OC)C2)CC(=O)[C@H](C)/C=C(\C)[C@@H](O)[C@@H](OC)C(=O)[C@H](C)C[C@H](C)/C=C/C=C/C=C/1C` [CCI-779, Temsirolimus], the “sensitization to ferroptosis” value in the experiment with BT474 cells and in the experiment with MDA-MB-453 cells was “sensitize” each time.
With `CCCc1cc(-c2nc(-c3ccc(C)cc3)cs2)ccn1` [Fatostatin A], the “sensitization to ferroptosis” value in the experiment on BT474 cells and in the experiment on MDA-MB-453 cells was “sensitized ferroptosis” throughout.
Take `CS(=O)(=O)N1CCN(Cc2cc3nc(-c4cccc5[nH]ncc45)nc(N4CCOCC4)c3s2)CC1` [GDC-0941]: the “sensitization to ferroptosis” value in the experiment with BT474 cells and in the experiment with MDA-MB-453 cells was “sensitized” in each case.
Take `NC1(c2ccc(-c3nc4ccn5c(=O)[nH]nc5c4cc3-c3ccccc3)cc2)CCC1` [MK-2206]: the “sensitization to ferroptosis” value with BT474 cells and in the experiment on MDA-MB-453 cells was “sensitized” each time.
Take `CCC(=O)N1CCN(c2ccc(-n3c(=O)ccc4cnc5ccc(-c6cnc7ccccc7c6)cc5c43)cc2C(F)(F)F)CC1` [Torin]: the “sensitization to ferroptosis” value in the experiment with BT474 cells and in the experiment with MDA-MB-453 cells was “sensitized” throughout.
